Assay results reported in patent US6737383B1, “Herbicidal oxadiazolidines” (priority 1999, dated 2004).

Legend:
[1] = system: rape; assay: Test B pre/postemergence rape; format: in vivo, Brassica napus
How it was run: (§1)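 Response is a visual 0-to-10 score relative to untreated plants, where 0 means no effect and 10 means complete control, taken twelve to sixteen days after application. Treatments went onto soil at planting and onto foliage of 1- to 4-leaf plants, using a surfactant-containing non-phytotoxic solvent.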

[2] = system: sugar beet; assay: Test B pre/postemergence sugar beet; format: in vivo, Beta vulgaris
How it was run: as §1

[3] = system: bedstraw; assay: Test B pre/postemergence bedstraw; format: in vivo, Galium aparine
How it was run: as §1

[4] = system: morningglory; assay: Test B pre/postemergence morningglory; format: in vivo, Ipomoea hederacea
How it was run: as §1

[5] = system: wild oat; assay: Test B pre/postemergence wild oat; format: in vivo, Avena fatua
How it was run: as §1

[6] = system: cocklebur; assay: Test B pre/postemergence cocklebur; format: in vivo, Xanthium strumarium
How it was run: as §1

[7] = system: velvetleaf; assay: Test B pre/postemergence velvetleaf; format: in vivo, Abutilon theophrasti
How it was run: as §1

[8] = system: bamyardgrass; assay: Test B flood test barnyardgrass; format: in vivo, Echinochloa crus-galli
How it was run: (§2)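 Plants were grown to the 2-leaf stage before treatment with test chemical, then held in a greenhouse for twelve to sixteen days. Injury was visually rated against untreated controls on a 0–10 scale, where 0 is no effect and 10 is complete control.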

[9] = system: surinam grass; assay: Test B pre/postemergence surinam grass; format: in vivo, Brachiaria decumbens
How it was run: as §1

[10] = system: crabgrass; assay: Test B pre/postemergence crabgrass; format: in vivo, Digitaria sanguinalis
How it was run: as §1

[11] = system: corn; assay: Test B pre/postemergence corn; format: in vivo, Zea mays
How it was run: as §1

[12] = system: blackgrass; assay: Test B pre/postemergence blackgrass; format: in vivo, Alopecurus myosuroides
How it was run: as §1

[13] = system: smallflower flatsedge; assay: Test B flood test smallflower flatsedge; format: in vivo, Cyperus difformis
How it was run: as §2

[14] = system: pigweed; assay: Test B pre/postemergence pigweed; format: in vivo, Amaranthus retroflexus
How it was run: as §1

[15] = system: rice; assay: Test B flood test rice; format: in vivo, Oryza sativa
How it was run: as §2

[16] = system: giant foxtail; assay: Test B pre/postemergence giant foxtail; format: in vivo, Setaria faberii
How it was run: as §1

[17] = Preemergence, Rate 62 g/ha, scale of 0 to 10 where 0 is no effect and 10 is complete control
[18] = Preemergence, Rate 250 g/ha, scale of 0 to 10 where 0 is no effect and 10 is complete control
[19] = Preemergence, Rate 500 g/ha, scale of 0 to 10 where 0 is no effect and 10 is complete control
[20] = Rate 125 g/ha, Postemergence, scale of 0 to 10 where 0 is no effect and 10 is complete control
[21] = Rate 125 g/ha, Preemergence, scale of 0 to 10 where 0 is no effect and 10 is complete control
[22] = Rate 250 g/ha, Postemergence, scale of 0 to 10 where 0 is no effect and 10 is complete control
[23] = Rate 500 g/ha, Postemergence, scale 0 to 10, 0 no effect, 10 complete control
[24] = Rate 62 g/ha, Postemergence, scale of 0 to 10 where 0 is no effect and 10 is complete control
[25] = Rate 62 g/ha, headed Pre-emergence (flood test species), scale 0 to 10 (0 no effect, 10 complete control)
[26] = Rate 125 g/ha, Pre-emergence, flood test species, scale 0 to 10 where 0 is no effect and 10 is complete control
[27] = Rate 250 g/ha, Pre-emergence, flood-test species, scale 0 to 10, 0 is no effect, 10 is complete control
[28] = Rate 500 g/ha, Pre-emergence, flood test species, scale 0 to 10 (0 no effect, 10 complete control)

CC(C)N(C(=O)n1oc(=O)n(CC(C)(C)C)c1=O)c1ccccc1 [Compound 276]
6: Morningglory plant response rating [4, 20] | Plant response rating, Morningglory [4, 22] | Plant response rating, Wild oats [5, 19] | Barnyardgrass plant response rating [8, 26] | Crabgrass plant response rating [10, 18] | Plant response rating, Crabgrass [10, 22] | Blackgrass plant response rating [12, 21] | Giant foxtail plant response rating [16, 23]
1: Rape plant response rating [1, 18] | Sugarbeets plant response rating [2, 18] | Sugarbeets plant response rating [2, 21] | Barnyardgrass plant response rating [8, 25] | Blackgrass plant response rating [12, 20] | Plant response rating, Redroot pigweed [14, 22] | Giant foxtail plant response rating [16, 20]
7: Plant response rating, Sugarbeets [2, 19] | B. signalgrass plant response rating [9, 21] | Plant response rating, Crabgrass [10, 19] | Crabgrass plant response rating [10, 23]
3: Plant response rating, Bedstraw [3, 22] | Bedstraw plant response rating [3, 23] | Plant response rating, Velvetleaf [7, 19] | Crabgrass plant response rating [10, 17]
10: Plant response rating, Rape [1, 19] | B. signalgrass plant response rating [9, 18] | Plant response rating, B. signalgrass [9, 19] | Blackgrass plant response rating [12, 18] | Plant response rating, Blackgrass [12, 19] | Giant foxtail plant response rating [16, 18] | Plant response rating, Giant foxtail [16, 19] | Giant foxtail plant response rating [16, 21]
0: Rape plant response rating [1, 17] | Rape plant response rating [1, 20] | Rape plant response rating [1, 21] | Plant response rating, Rape [1, 22] | Rape plant response rating [1, 23] | Sugarbeets plant response rating [2, 17] | Sugarbeets plant response rating [2, 20] | Bedstraw plant response rating [3, 17] | Bedstraw plant response rating [3, 18] | Plant response rating, Bedstraw [3, 19] | Bedstraw plant response rating [3, 24] | Bedstraw plant response rating [3, 20] | Bedstraw plant response rating [3, 21] | Morningglory plant response rating [4, 17] | Morningglory plant response rating [4, 18] | Plant response rating, Morningglory [4, 19] | Morningglory plant response rating [4, 21] | Wild oats plant response rating [5, 17] | Wild oats plant response rating [5, 20] | Plant response rating, Wild oats [5, 22] | Wild oats plant response rating [5, 23] | Cocklebur plant response rating [6, 17] | Cocklebur plant response rating [6, 18] | Plant response rating, Cocklebur [6, 19] | Cocklebur plant response rating [6, 24] | Cocklebur plant response rating [6, 20] | Cocklebur plant response rating [6, 21] | Plant response rating, Cocklebur [6, 22] | Cocklebur plant response rating [6, 23] | Velvetleaf plant response rating [7, 17] | Velvetleaf plant response rating [7, 18] | Velvetleaf plant response rating [7, 20] | Velvetleaf plant response rating [7, 21] | Plant response rating, Velvetleaf [7, 22] | Velvetleaf plant response rating [7, 23] | B. signalgrass plant response rating [9, 24] | B. signalgrass plant response rating [9, 20] | Plant response rating, B. signalgrass [9, 22] | B. signalgrass plant response rating [9, 23] | Crabgrass plant response rating [10, 20] | Corn plant response rating [11, 17] | Corn plant response rating [11, 18] | Plant response rating, Corn [11, 19] | Corn plant response rating [11, 24] | Corn plant response rating [11, 20] | Corn plant response rating [11, 21] | Plant response rating, Corn [11, 22] | Corn plant response rating [11, 23] | Blackgrass plant response rating [12, 24] | S. Flatsedge plant response rating [13, 25] | S. Flatsedge plant response rating [13, 26] | S. Flatsedge plant response rating [13, 27] | S. Flatsedge plant response rating [13, 28] | Redroot pigweed plant response rating [14, 17] | Redroot pigweed plant response rating [14, 20] | Redroot pigweed plant response rating [14, 21] | Rice plant response rating [15, 25] | Rice plant response rating [15, 26] | Rice plant response rating [15, 27] | Rice plant response rating [15, 28]
8: Morningglory plant response rating [4, 23] | Barnyardgrass plant response rating [8, 27] | Barnyardgrass plant response rating [8, 28] | Blackgrass plant response rating [12, 23]
2: Plant response rating, Sugarbeets [2, 22] | Sugarbeets plant response rating [2, 23] | Redroot pigweed plant response rating [14, 18] | Redroot pigweed plant response rating [14, 23]
4: Wild oats plant response rating [5, 18] | B. signalgrass plant response rating [9, 17] | Crabgrass plant response rating [10, 21] | Plant response rating, Blackgrass [12, 22] | Plant response rating, Redroot pigweed [14, 19] | Plant response rating, Giant foxtail [16, 22]
9: Giant foxtail plant response rating [16, 17]
